Data published in patent US9265253B2, “Use of macrocyclic picolinamides as fungicides” (DOW AGROSCIENCES LLC, priority 2013, dated 2016).
Read-outs that look alike come from different tables or passages of the source.

How the values were obtained:
Type in all cases: in vivo
Alternaria solani = assay: Tomato Early Blight (ALTESO) disease control; settings: Alternaria solani, topical, 24 h, 1 Day Protectant, read-out: Disease Control ALTESO 1 DP
Procedure: Technical grades of materials were dissolved in acetone, which were then mixed with nine volumes of water containing 110 ppm Triton X-100. The fungicide solutions were applied onto wheat seedlings using an automated booth sprayer to run-off. All sprayed plants were allowed to air dry prior to further handling. All fungicides were evaluated using the aforementioned method for their activity vs. all target diseases. Wheat leaf blotch and brown rust activity were also evaluated using track spray applications, in which case the fungicides were formulated as EC formulations, containing 0.1% Trycol 5941 in the spray solutions. Wheat plants (variety Yuma) were grown from seed in a greenhouse in 50% mineral soil/50% soil-less Metro mix until the first leaf was fully emerged, with 7-10 seedlings per pot. These plants were inoculated with an aqueous spore suspension of Septoria tritici either prior to or after fungicide treatments. After inoculation the plants were kept in 100% relative humidity (one day in a dark dew chamber followed by two to three days in a lighted dew chamber at 20° C.) to permit spores to germinate and infect the leaf. The plants were then transferred to a greenhouse set at 20° C. for disease to develop. When disease symptoms were fully expressed on the 1st leaves of untreated plants, infection levels were assessed on a scale of 0 to 100 percent disease severity. Percent disease control was calculated using the ratio of disease severity on treated plants relative to untreated plants. Tomato plants (variety Outdoor girl) were propagated in soil-less Metro mix, with each pot having one plant, and used when 12 to 14 days old. Test plants were inoculated with an aqueous spore suspension of Alternaria solani 24 hr after fungicide treatments. After inoculation the plants were kept in 100% relative humidity (one day in a dark dew chamber followed by two to three days in a lighted dew chamber at 20° C.) to permit spores to germinate and infect the leaf. The plants were then transferred to a growth room at 22° C. for disease to develop. Fungicide formulation, application and disease assessment on the sprayed leaves followed the procedures as described in the Example A.

[1] = tested on: Puccinia triticina; Synonym: Puccinia recondite f. Sp. Tritici; assay: Wheat Brown Rust (PUCCRT) disease control; settings: Puccinia triticina, topical; for pest or weed control at 100 ppm: rate 100 ppm; for pest or weed control at 121.5 g/ha: rate 121.5 g/H
Method in brief: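 Brown rust on first-leaf Yuma wheat: spore inoculation before or after spray application (acetone/Triton X-100 solution, or EC with Trycol in track spray), overnight 100% RH at 22 °C, disease developed at 24 °C. Severity scored 0–100% and converted to percent control against untreated.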

[2] = tested on: Mycosphaerella graminicola; Anamorph: Septoria tritici; assay: Leaf Blotch of Wheat (SEPTTR) disease control; settings: Zymoseptoria tritici; for pest or weed control at 100 ppm: rate 100 ppm; for pest or weed control at 121.5 g/ha: rate 121.5 g/H
Method in brief: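 Protective or curative format: Septoria tritici inoculation either preceded or followed fungicide application to first-leaf Yuma wheat. Severity scored 0–100%; control expressed versus untreated.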

Venturia inaequalis = assay: Apple Scab (VENTIN) disease control; settings: Venturia inaequalis, topical, 24 h, 1 Day Protectant, read-out: Disease Control VENTIN 1 DP
Procedure: Technical grades of materials were dissolved in acetone, which were then mixed with nine volumes of water containing 110 ppm Triton X-100. The fungicide solutions were applied onto wheat seedlings using an automated booth sprayer to run-off. All sprayed plants were allowed to air dry prior to further handling. All fungicides were evaluated using the aforementioned method for their activity vs. all target diseases. Wheat leaf blotch and brown rust activity were also evaluated using track spray applications, in which case the fungicides were formulated as EC formulations, containing 0.1% Trycol 5941 in the spray solutions. Wheat plants (variety Yuma) were grown from seed in a greenhouse in 50% mineral soil/50% soil-less Metro mix until the first leaf was fully emerged, with 7-10 seedlings per pot. These plants were inoculated with an aqueous spore suspension of Septoria tritici either prior to or after fungicide treatments. After inoculation the plants were kept in 100% relative humidity (one day in a dark dew chamber followed by two to three days in a lighted dew chamber at 20° C.) to permit spores to germinate and infect the leaf. The plants were then transferred to a greenhouse set at 20° C. for disease to develop. When disease symptoms were fully expressed on the 1st leaves of untreated plants, infection levels were assessed on a scale of 0 to 100 percent disease severity. Percent disease control was calculated using the ratio of disease severity on treated plants relative to untreated plants. Apple seedlings (variety McIntosh) were grown in soil-less Metro mix, with one plant per pot. Seedlings with two expanding young leaves at the top (older leaves at bottom of the plants were trimmed) were used in the test. Plants were inoculated with a spore suspension of Venturia inaequalis 24 hr after fungicide treatment and kept in a 22° C. dew chamber with 100% RH for 48 hr, and then moved to a greenhouse set at 20° C. for disease to develop. Fungicide formulation, application and disease assessment on the sprayed leaves followed the procedures as described in the Example A.

[3] = 24 h, 1 Day Protectant, read-out: PUCCRT 1 DP disease control
[4] = 72 h, 3 Day Curative, read-out: PUCCRT 3 DC disease control
[5] = 24 h, 1 Day Protectant, read-out: SEPTTR 1 DP disease control
[6] = 72 h, 3 Day Curative, read-out: SEPTTR 3 DC disease control

COc1ccnc(C(=O)N[C@H]2CCC[C@H](CC3CCCC3)[C@@H](OCC3CC3)[C@H](C)OC2=O)c1OCOC(C)=O [Compound F117]
80 to 100%: pest or weed control at 100 ppm (Alternaria solani) | pest or weed control at 100 ppm [1, 3] | pest or weed control at 121.5 g/ha [1, 3] | pest or weed control at 100 ppm [1, 4] | pest or weed control at 121.5 g/ha [1, 4] | pest or weed control at 100 ppm [2, 5] | pest or weed control at 121.5 g/ha [2, 5] | pest or weed control at 100 ppm [2, 6] | pest or weed control at 121.5 g/ha [2, 6] | pest or weed control at 100 ppm (Venturia inaequalis)

COc1ccnc(C(=O)N[C@H]2CCC[C@H](Cc3ccc(F)cc3F)[C@@H](OCC(C)C)[C@H](C)OC2=O)c1OCOC(C)=O [Compound F145]
80 to 100%: pest or weed control at 100 ppm (Alternaria solani) | pest or weed control at 121.5 g/ha [1, 3] | pest or weed control at 121.5 g/ha [1, 4] | pest or weed control at 121.5 g/ha [2, 5] | pest or weed control at 121.5 g/ha [2, 6] | pest or weed control at 100 ppm (Venturia inaequalis)

COc1ccnc(C(=O)N[C@H]2CCC[C@H](CC(F)F)[C@@H](Oc3ccccc3)[C@H](C)OC2=O)c1OCOC(C)=O [Compound F138]
80 to 100%: pest or weed control at 100 ppm [1, 3] | pest or weed control at 121.5 g/ha [1, 3] | pest or weed control at 100 ppm [1, 4] | pest or weed control at 121.5 g/ha [1, 4] | pest or weed control at 100 ppm [2, 5] | pest or weed control at 121.5 g/ha [2, 5] | pest or weed control at 100 ppm [2, 6] | pest or weed control at 121.5 g/ha [2, 6]
0 to 80%: pest or weed control at 100 ppm (Venturia inaequalis)

CCCO[C@@H]1[C@@H](Cc2ccccc2)CCC[C@H](NC(=O)c2nccc(OC)c2OCOC(C)=O)C(=O)O[C@H]1C [Compound F109]
80 to 100%: pest or weed control at 100 ppm (Alternaria solani) | pest or weed control at 100 ppm [1, 3] | pest or weed control at 121.5 g/ha [1, 3] | pest or weed control at 100 ppm [1, 4] | pest or weed control at 121.5 g/ha [1, 4] | pest or weed control at 100 ppm [2, 5] | pest or weed control at 121.5 g/ha [2, 5] | pest or weed control at 100 ppm [2, 6] | pest or weed control at 121.5 g/ha [2, 6] | pest or weed control at 100 ppm (Venturia inaequalis)

COCC[C@H]1CCC[C@H](NC(=O)c2nccc(OC)c2OC(C)=O)C(=O)O[C@@H](C)[C@@H]1Oc1ccccc1 [Compound F78]
0 to 80%: pest or weed control at 100 ppm (Alternaria solani) | pest or weed control at 100 ppm (Venturia inaequalis)
80 to 100%: pest or weed control at 100 ppm [1, 3] | pest or weed control at 121.5 g/ha [1, 3] | pest or weed control at 100 ppm [1, 4] | pest or weed control at 121.5 g/ha [1, 4] | pest or weed control at 100 ppm [2, 5] | pest or weed control at 121.5 g/ha [2, 5] | pest or weed control at 100 ppm [2, 6] | pest or weed control at 121.5 g/ha [2, 6]

COc1ccnc(C(=O)N[C@H]2CCC[C@H](Cc3ccccc3)[C@@H](OCC(C)C)[C@H](C)OC2=O)c1OC(C)=O [Compound F70]
0 to 80%: pest or weed control at 100 ppm (Alternaria solani) | pest or weed control at 100 ppm (Venturia inaequalis)
80 to 100%: pest or weed control at 100 ppm [1, 3] | pest or weed control at 121.5 g/ha [1, 3] | pest or weed control at 100 ppm [1, 4] | pest or weed control at 121.5 g/ha [1, 4] | pest or weed control at 100 ppm [2, 5] | pest or weed control at 121.5 g/ha [2, 5] | pest or weed control at 100 ppm [2, 6] | pest or weed control at 121.5 g/ha [2, 6]
